Assay results: US11518747B2, “Solid forms of an N-terminal domain androgen receptor inhibitor and uses thereof” (ESSA Pharma, Inc., priority 2020, dated 2022)
Values after ≈ are worked out from the molar mass of the structure shown.

What was measured:
[1] = test system: Androgen-induced PSA-luciferase activity; assay: Androgen-induced PSA (6.1 kb)-luciferase reporter assay in transiently transfected LNCaP cells; type: cell-based; conditions: Homo sapiens, R1881 1 nM, 24 h
Protocol: To determine the IC50, treatments were normalized to the maximum activity with androgen-induction (in the absence of test compounds, vehicle only) (Table 12).
Luciferase Assay: Lysates were thawed on ice then collected into V-bottom 96-well tissue culture plates. Lysates were centrifuged at 4° C. for 5 minutes at 4000 rpm. To measure luminescence of LNCaP cell lysates the Firefly Luciferase Assay System (Promega) was employed, according to manufacturer's protocol.
Comparisons between treatment and control groups were compared using Two-Way ANOVA with post-hoc Dunnett's and Tukey's tests. Differences were considered statistically significant at P values less than 0.05. Densitometric quantification of relative AR levels was determined by Image.

[2] = Approximate solubility by solvent aliquot addition, visual inspection; type: physicochemical; conditions: organic solvent or mixture, thermodynamic from solid
Protocol: The approximate solubility of Compound I in various organic solvents was determined by adding solvent aliquots to weighed samples Compound I. Weighed samples of Compound I were treated with aliquots of the test solvents or solvent mixtures at ambient temperature. Complete dissolution of the test material was determined by visual inspection. Solubility was estimated based on the total solvent volume used to provide complete dissolution. The actual solubility may be greater than the value calculated because of the use of solvent aliquots that were too large or due to a slow rate of dissolution. If complete dissolution was not achieved during the experiment, the solubility is expressed as “less than” (<). If complete dissolution was achieved by only one aliquot addition, the value is reported as “larger than” (>).

[3] = Equilibrium solubility acquired at 24 hours; type: physicochemical; conditions: organic solvent or mixture, thermodynamic from solid
[4] = Amorphous solubility by slow addition from organic stock into aqueous media (UV/Vis scattering, DLS); type: physicochemical; conditions: for solubility: kinetic from dmso stock
Excerpt: Solubility: Generally, the solubility of an amorphous form is higher than that of the corresponding crystal form, due to the lack of crystalline lattice forces in the amorphous state. Solubility of the amorphous form of Compound I was studied by slow addition of the amorphous form from an organic stock solution into the pH 6.5 phosphate-buffered saline (PBS) solution or 0.5% wt simulated intestinal fluid (SIF) in pH 6.5 PBS. When the amorphous solubility is reached, a drug-rich phase forms which typically scatters light (e.g., liquid-liquid phase separation or LLPS), which can be detected by scattering of UV/Visible light and/or by dynamic light scattering (DLS).
No scattering event prior to crystallization was observed.

[5] = Physical stability of solid forms (drying, storage, slurry; XRPD); type: physicochemical; conditions: for XRPD result after stirring: RT, 4 d
Protocol: Based on experimental conditions to generate Material B and its drying studies, without being bound to any theory, Material B could be a solvated material which can convert to Material C upon drying.
In order to evaluate the relative stability between Form A and Material C, a competitive slurry was performed. About equal amounts (by mass) of Material C (mixture w/some Form A) and Form A were added to acetone so that solids persisted and were stirred at room temperature for 9 days. Solids were isolated by centrifugation using Spin-X centrifuge tubes equipped with a 0.45 μm nylon filter. Beige solids were observed. […] Material C could be an anhydrous material.
Further analyses including ^1H NMR and TGA were also collected on this amorphous sample (Table 10). The ^1H NMR spectrum was consistent with the chemical structure of Compound I and contains trace amount of DCM. By TGA (FIG. 9), about 1.0 wt % loss is observed from 45-200° C., which is likely due to the residual DCM and moisture in the material. The dramatic change in the slope of the TGA thermogram starting at 280° C. (onset) is likely associated with the decomposition of the material. […] A repeated rotary evaporation attempt from DCM solution generated disordered Compound I Form A (FIG. 7, second spectrum from bottom) after the sample was secondary dried at ambient temperature under vacuum for 3 days, which provides further evidence that amorphous Compound I is not physically stable.
Crystallization studies were performed on this disordered material (Table 10) and solids were stirred in acetone and H2O for 4 days at ambient conditions. Both experiments generated crystalline Form A (FIG. 10, bottom two spectra).

[6] = Dynamic vapor sorption (DVS) analysis; type: physicochemical; parameters: Hysteresis: unit not given here
Protocol: In one embodiment, the crystalline forms are characterized by Dynamic Vapor Sorption (DVS). The DVS profile is typically expressed by a diagram plotting the sample relative humidity (RH) versus the change in mass (%). The DVS profile provides information on hygroscopicity of the crystalline form at different RH conditions.
DVS (dynamic vapor sorption) analysis was carried out on Form A (Table 2, FIG. 3).

[7] = target RH 95.0 %, sample RH 96.0 %

Structure (SMILES): CC(O)(CS(=O)(=O)c1ccc(F)cc1)C(=O)Nc1ccc(C#N)c(C(F)(F)F)c1 (stereo not drawn) [Bicalutamide]
- IC50 [1]: 306 nM

Structure (SMILES): CC(C)(c1ccc(OCc2ccnc(NS(C)(=O)=O)n2)cc1)c1cc(Cl)c(OCCCl)c(C#N)c1 [Compound I, N-{4-[(4-{2-[3-chloro-4-(2-chloroethoxy)-5-cyanophenyl]propan-2-yl}phenoxy)methyl]pyrimidin-2-yl}methanesulfonamide]
- IC50 [1]: 535 nM
- solubility ([2]; dioxane (printed 'dioxant'), dioxant, ambient temperature, read-out: Solubility): > 107000 µg/mL
- solubility ([2]; DCM, ambient temperature, read-out: Solubility): 20000 µg/mL (≈ 37.4 mM)
- solubility ([2]; DMA, ambient temperature, read-out: Solubility): > 79000 µg/mL
- solubility ([2]; Et2O, ambient temperature, read-out: Solubility): < 2000 µg/mL
- solubility ([2]; MEK, ambient temperature, read-out: Solubility): 6000 µg/mL (≈ 11.2 mM)
- solubility ([2]; MTBE, ambient temperature, read-out: Solubility): < 1000 µg/mL
- solubility ([2]; NMP, ambient temperature, read-out: Solubility): > 117000 µg/mL
- solubility ([2]; THF, ambient temperature, read-out: Solubility): 54000 µg/mL (≈ 101 mM)
- solubility ([2]; iPrOAc, ambient temperature, read-out: Solubility): < 1000 µg/mL
- solubility ([2]; p-dioxane, from observations on samples at much larger scales, read-out: Approximate solubility): 35000 to 103000 µg/mL (≈ 65.4 to 192 mM)
- solubility ([2]; toluene, ambient temperature, read-out: Solubility): 1000 µg/mL (≈ 1.87 mM)
- solubility at 24 h ([3]; ACN): 2040 µg/mL (≈ 3.81 mM)
- solubility at 24 h ([3]; DMSO): > 12000 µg/mL
- solubility at 24 h ([3]; EtOAc): 1970 µg/mL (≈ 3.68 mM)
- solubility at 24 h ([3]; EtOH): 170 µg/mL (≈ 0.317 mM)
- solubility at 24 h ([3]; MeOH): 210 µg/mL (≈ 0.392 mM)
- solubility at 24 h ([3]; acetone): 5300 µg/mL (≈ 9.9 mM)
- Crystalline solubility [4]: very low

Structure (SMILES): CC(C)(c1ccc(OCc2ccnc(NS(C)(=O)=O)n2)cc1)c1cc(Cl)c(OCCCl)c(C#N)c1 [Disordered]
- XRPD result after stirring ([5]; H2O): Form A
- XRPD result after stirring ([5]; acetone): Form A

Structure (SMILES): CC(C)(c1ccc(OCc2ccnc(NS(C)(=O)=O)n2)cc1)c1cc(Cl)c(OCCCl)c(C#N)c1 [Form A, N-{4-[(4-{2-[3-chloro-4-(2-chloroethoxy)-5-cyanophenyl]propan-2-yl}phenoxy)methyl]pyrimidin-2-yl}methanesulfonamide]
- Solids recovered after DVS analysis, by XRPD ([6]; after DVS cycle): consistent with Form A
- Total weight gain during sorption ([6]; from 5% to 95% RH): 5.474%
- Weight gain during sorption ([6]; from 55% to 85% RH): 1.978 wt %
- Weight gain during sorption ([6]; from 85% RH to 95% RH): 3.106 wt %
- Weight loss during desorption ([6]; from 95% RH to 5% RH): 5.472%
- Sorp Mass Change ([6]; target RH 5.0 %, sample RH 4.9 %): 0.000%
- Desorp Mass Change ([6]; target RH 5.0 %, sample RH 5.4 %): 0.002%
- Hysteresis ([6]; target RH 15.0 %): 0.013
- Sorp Mass Change ([6]; target RH 15.0 %, sample RH 15.4 %): 0.055%
- Desorp Mass Change ([6]; target RH 15.0 %, sample RH 16.1 %): 0.060%
- Hysteresis ([6]; target RH 25.0 %): 0.036
- Sorp Mass Change ([6]; target RH 25.0 %, sample RH 24.9 %): 0.111%
- Desorp Mass Change ([6]; target RH 25.0 %, sample RH 25.6 %): 0.146%
- Hysteresis ([6]; target RH 45.0 %): 0.474
- Sorp Mass Change ([6]; target RH 45.0 %, sample RH 44.8 %): 0.242%
- Desorp Mass Change ([6]; target RH 45.0 %, sample RH 45.6 %): 0.716%
- Hysteresis ([6]; target RH 55.0 %): 0.650
- Sorp Mass Change ([6]; target RH 55.0 %, sample RH 54.5 %): 0.390%
- Desorp Mass Change ([6]; target RH 55.0 %, sample RH 55.5 %): 1.040%
- Hysteresis ([6]; target RH 65.0 %): 0.452
- Desorp Mass Change ([6]; target RH 65.0 %, sample RH 65.6 %): 1.438%
- Sorp Mass Change ([6]; target RH 65.0 %, sample RH […]): 0.906%
- Hysteresis ([6]; target RH 75.0 %): 0.364
- Sorp Mass Change ([6]; target RH 75.0 %, sample RH 74.5 %): 1.567%
- Desorp Mass Change ([6]; target RH 75.0 %, sample RH 75.5 %): 1.931%
- Hysteresis ([6]; target RH 85.0 %): 0.604
- Sorp Mass Change ([6]; target RH 85.0 %, sample RH 84.7 %): 2.368%
- Desorp Mass Change ([6]; target RH 85.0 %, sample RH 85.8 %): 2.072%
- Desorp Mass Change [6, 7]: 5.474%
- Sorp Mass Change [6, 7]: 5.474%
- Hysteresis ([6]; target RH […]): 0.108
- Sorp Mass Change ([6]; target RH […], sample RH 34.5 %): 0.169%
- Desorp Mass Change ([6]; target RH […], sample RH 35.3 %): 0.277%
- Hygroscopicity ([6]; within 5%-55% RH): low hygroscopicity
- Hygroscopicity ([6]; within 55%-85% RH): limited hygroscopicity
- Hygroscopicity ([6]; within 85%-95% RH): significant hygroscopicity
- Relative stability, competitive slurry ([5]; Material C (with some Form A) and Form A in acetone, room temperature, 9 days): more stable than Material C

Structure (SMILES): CC(C)(c1ccc(OCc2ccnc(NS(C)(=O)=O)n2)cc1)c1cc(Cl)c(OCCCl)c(C#N)c1 [Material B]
- Stability upon drying [5]: unstable upon drying
- XRPD result after drying ([5]; 65-66° C., vacuum, 5 d): mixture of Form A and Material C
- XRPD result after drying ([5]; RT (ambient), on filter paper, 3 d): disordered Material C

Structure (SMILES): CC(C)(c1ccc(OCc2ccnc(NS(C)(=O)=O)n2)cc1)c1cc(Cl)c(OCCCl)c(C#N)c1 [Material D]
- XRPD result after drying ([5]; 50-52° C., vacuum, 3 d): desolvate into Form A

Structure (SMILES): CC(C)(c1ccc(OC[C@H](O)CNS(C)(=O)=O)cc1)c1cc(Cl)c(OC[C@H](O)CCl)c(Cl)c1 [Reference Compound X]
- IC50 [1]: 1050 nM

Structure (SMILES): CC(C)(c1ccc(OCc2ccnc(NS(C)(=O)=O)n2)cc1)c1cc(Cl)c(OCCCl)c(C#N)c1 [amorphous form of Compound I]
- solubility ([4]; 0.5% wt simulated intestinal fluid in PBS, fassgf or other biorelevant, 0.5% SIF (pH 6.5)): > 25 µg/mL
- solubility ([4]; phosphate-buffered saline, aqueous buffer, pH 6.5 PBS): > 2.5 µg/mL
- Amorphous solubility relative to crystalline solubility ([4]; simulated intestinal media): at least 20 ×
- XRPD result after storage ([5]; ambient (RT), desiccator, about 10 days): disordered Form A
- Physical stability ([5]; ambient temperature): physically not stable
